Experimental data: US20040013730A1, “Non-hormonal vaginal contraceptive” (priority 2003, published 2004)

Columns and labels:
human sperm = assay: Efficacy of metal salts, albumin and dextran on motility of human sperm in vitro; settings: for concentration at which spermiostatic (motility of sperm arrested): human sperm in vitro
human cervical mucus = assay: Cervical mucus score (WHO): viscosity, ferning, spinnbarkeit, cellularity, pH; settings: for TOTAL cervical mucus score: pH not included
[1] = ascorbic acid 0.31%, fourth sample (undated)
[2] = ascorbic acid 0.31%, sample Jun. 22, 2000
[3] = ascorbic acid 0.31%, sample Jun. 23, 2000
[4] = ascorbic acid 0.31%, third sample (undated)
[5] = ascorbic acid 0.63%, fourth sample (undated)
[6] = ascorbic acid 0.63%, sample Jun. 22, 2000
[7] = ascorbic acid 0.63%, sample Jun. 23, 2000
[8] = ascorbic acid 0.63%, third sample (undated)
[9] = ascorbic acid 1%, fourth sample (undated)
[10] = ascorbic acid 1%, sample Jun. 22, 2000
[11] = ascorbic acid 1%, sample Jun. 23, 2000
[12] = ascorbic acid 1%, third sample (undated)
[13] = ascorbic acid 1.25%, fourth sample (undated)
[14] = ascorbic acid 1.25%, sample Jun. 22, 2000
[15] = ascorbic acid 1.25%, sample Jun. 23, 2000
[16] = ascorbic acid 1.25%, third sample (undated)
[17] = ascorbic acid 2.50%, fourth sample (undated)
[18] = ascorbic acid 2.50%, sample Jun. 22, 2000
[19] = ascorbic acid 2.50%, sample Jun. 23, 2000
[20] = ascorbic acid 2.50%, third sample (undated)
[21] = ascorbic acid 5%, fourth sample (undated)
[22] = ascorbic acid 5%, sample Jun. 22, 2000
[23] = ascorbic acid 5%, sample Jun. 23, 2000
[24] = ascorbic acid 5%, third sample (undated)
[25] = ascorbic acid 10%, fourth sample (undated)
[26] = ascorbic acid 10%, sample Jun. 22, 2000
[27] = ascorbic acid 10%, sample Jun. 23, 2000
[28] = ascorbic acid 10%, third sample (undated)

## dihydrate ferrous gluconate [dihydrate form of ferrous gluconate]
Human sperm; dihydrate form of ferrous gluconate
  onset of spermiostatic effect: immediate

## O=S(=O)([O-])[O-].[Cu+2] [copper sulfate]
Human sperm; 25 mM solution
  immobilization of sperm: 93.3%
Human sperm; 37.5 mM solution
  immobilization of sperm: completely immobilized all the sperm
Human sperm; 2.5% dextran added to 6.5-mM copper sulfate solution
  additional spermiostatic effect: no additional spermiostatic effect
Human sperm
  concentration at which spermiostatic (motility of sperm arrested): 6.25 mM

## [Ca+2].[Cl-].[Cl-] [calcium chloride]
Human sperm
  concentration at which spermiostatic (motility of sperm arrested): 25 mM

## [Cl-].[Cl-].[Mg+2] [magnesium chloride]
Human sperm
  concentration at which spermiostatic (motility of sperm arrested): 35 mM

## ferrous sulfate
Human sperm
  concentration at which spermiostatic (motility of sperm arrested): 10 mM

## ferrous gluconate
Human sperm; 25 mM solution
  immobilization of sperm: 97.4%
Human sperm; 37.5 mM solution
  immobilization of sperm: completely immobilized all the sperm
Human sperm; 2.5% dextran added to 12.5-mM ferrous gluconate solution
  additional spermiostatic effect: no additional spermiostatic effect
Human sperm; 2.5% dextran and 5% albumin added to 12.5 mM ferrous gluconate
  enhancement of the spermiostatic effect: no enhancement of the spermiostatic effect
Human sperm
  concentration at which spermiostatic (motility of sperm arrested): 12.5 mM

## O=C1O[C@H]([C@@H](O)CO)C(O)=C1O [ascorbic acid, L-ascorbic acid]
Human cervical mucus; L-ascorbic acid from 0.31% to a range of 1-2.5%
  overall viscosity of the mucus: increased in direct relationship with increasing concentrations
Human cervical mucus; [1]
  Cellularity (cervical mucus score): 0
  Ferning (cervical mucus score): 0
  Spinnbarkiet (cervical mucus score): 1 ± .35
  Viscosity (cervical mucus score): 2 ± .79
  TOTAL cervical mucus score: 3.2
Human cervical mucus; [2]
  Cellularity (cervical mucus score): 2 ± .86
  Ferning (cervical mucus score): 2 ± .86
  Spinnbarkiet (cervical mucus score): 0 (less than 1 cm)
  Viscosity (cervical mucus score): 3 ± .79
  TOTAL cervical mucus score: 7.3
Human cervical mucus; [3]
  Cellularity (cervical mucus score): 2 ± .58
  Ferning (cervical mucus score): 0
  Spinnbarkeit (cervical mucus score): 1 ± .35
  Viscosity (cervical mucus score): 3 ± .79
  TOTAL cervical mucus score: 6.2
Human cervical mucus; [4]
  Cellularity (cervical mucus score): 1 ± .58
  Ferning (cervical mucus score): 0
  Spinnbarkeit (cervical mucus score): 0 (less than 1 cm)
  Viscosity (cervical mucus score): 2 ± .79
  TOTAL cervical mucus score: 3.15
Human cervical mucus; [5]
  Cellularity (cervical mucus score): 0
  Ferning (cervical mucus score): 3 ± .86
  Spinnbarkiet (cervical mucus score): 1 ± .49
  Viscosity (cervical mucus score): 3 ± .81
  TOTAL cervical mucus score: 7.2
Human cervical mucus; [6]
  Cellularity (cervical mucus score): 0
  Ferning (cervical mucus score): 0
  Spinnbarkiet (cervical mucus score): 1 ± .49
  Viscosity (cervical mucus score): 1 ± .81
  TOTAL cervical mucus score: 2.3
Human cervical mucus; [7]
  Cellularity (cervical mucus score): 0
  Ferning (cervical mucus score): 0
  Spinnbarkeit (cervical mucus score): 1 ± .49
  Viscosity (cervical mucus score): 2 ± .81
  TOTAL cervical mucus score: 3.2
Human cervical mucus; [8]
  Cellularity (cervical mucus score): 1 ± .61
  Ferning (cervical mucus score): 0
  Spinnbarkeit (cervical mucus score): 1 ± .49
  Viscosity (cervical mucus score): 1 ± .81
  TOTAL cervical mucus score: 3.15
Human cervical mucus; [9]
  Cellularity (cervical mucus score): 0
  Ferning (cervical mucus score): 3 ± .82
  Spinnbarkiet (cervical mucus score): 1 ± .51
  Viscosity (cervical mucus score): 2 ± .75
  TOTAL cervical mucus score: 6.2
Human cervical mucus; [10]
  Cellularity (cervical mucus score): 2 ± .82
  Ferning (cervical mucus score): 2 ± .82
  Spinnbarkiet (cervical mucus score): 1 ± .51
  Viscosity (cervical mucus score): 1 ± .75
  TOTAL cervical mucus score: 6.3
Human cervical mucus; [11]
  Cellularity (cervical mucus score): 0
  Ferning (cervical mucus score): 0
  Spinnbarkeit (cervical mucus score): 1 ± .51
  Viscosity (cervical mucus score): 2 ± .75
  TOTAL cervical mucus score: 3.2
Human cervical mucus; [12]
  Cellularity (cervical mucus score): 0
  Ferning (cervical mucus score): 0
  Spinnbarkeit (cervical mucus score): 1 ± .51
  Viscosity (cervical mucus score): 2 ± .75
  TOTAL cervical mucus score: 3.15
Human cervical mucus; [13]
  Cellularity (cervical mucus score): 1 ± .53
  Ferning (cervical mucus score): 2 ± 1.13
  Spinnbarkiet (cervical mucus score): 1 ± 51
  Viscosity (cervical mucus score): 3 ± .95
  TOTAL cervical mucus score: 7.2
Human cervical mucus; [14]
  Cellularity (cervical mucus score): 0
  Ferning (cervical mucus score): 0
  Spinnbarkiet (cervical mucus score): 1 ± .51
  Viscosity (cervical mucus score): 1 ± .95
  TOTAL cervical mucus score: 2.3
Human cervical mucus; [15]
  Cellularity (cervical mucus score): 0
  Ferning (cervical mucus score): 0
  Spinnbarkeit (cervical mucus score): 1 ± .51
  Viscosity (cervical mucus score): 3 ± .95
  TOTAL cervical mucus score: 4.2
Human cervical mucus; [16]
  Cellularity (cervical mucus score): 1 ± .53
  Ferning (cervical mucus score): 0
  Spinnbarkeit (cervical mucus score): 0 (less than 1 cm)
  Viscosity (cervical mucus score): 1 ± .95
  TOTAL cervical mucus score: 2.15
Human cervical mucus; [17]
  Cellularity (cervical mucus score): 1 ± .49
  Ferning (cervical mucus score): 1 ± .82
  Spinnbarkiet (cervical mucus score): 1 ± .14
  Viscosity (cervical mucus score): 2 ± .61
  TOTAL cervical mucus score: 5.2
Human cervical mucus; [18]
  Cellularity (cervical mucus score): 0
  Ferning (cervical mucus score): 0
  Spinnbarkiet (cervical mucus score): 1 ± .14
  Viscosity (cervical mucus score): 2 ± .61
  TOTAL cervical mucus score: 3.3
Human cervical mucus; [19]
  Cellularity (cervical mucus score): 1 ± .49
  Ferning (cervical mucus score): 0
  Spinnbarkeit (cervical mucus score): 1 ± .14
  Viscosity (cervical mucus score): 0
  TOTAL cervical mucus score: 2.2
Human cervical mucus; [20]
  Cellularity (cervical mucus score): 1 ± .49
  Ferning (cervical mucus score): 0
  Spinnbarkeit (cervical mucus score): 0 (less than 1 cm)
  Viscosity (cervical mucus score): 1 ± .61
  TOTAL cervical mucus score: 2.15
Human cervical mucus; [21]
  Cellularity (cervical mucus score): 1 ± .66
  Ferning (cervical mucus score): 0
  Spinnbarkiet (cervical mucus score): 1 ± .35
  Viscosity (cervical mucus score): 2 ± .52
  TOTAL cervical mucus score: 4.2
Human cervical mucus; [22]
  Cellularity (cervical mucus score): 0
  Ferning (cervical mucus score): 0
  Spinnbarkiet (cervical mucus score): 1 ± .35
  Viscosity (cervical mucus score): 2 ± .52
  TOTAL cervical mucus score: 3.3
Human cervical mucus; [23]
  Cellularity (cervical mucus score): 0
  Ferning (cervical mucus score): 0
  Spinnbarkeit (cervical mucus score): 0 (less than 1 cm)
  Viscosity (cervical mucus score): 2 ± .52
  TOTAL cervical mucus score: 2.2
Human cervical mucus; [24]
  Cellularity (cervical mucus score): 0
  Ferning (cervical mucus score): 0
  Spinnbarkeit (cervical mucus score): 1 ± .35
  Viscosity (cervical mucus score): 2 ± .25
  TOTAL cervical mucus score: 2.15
Human cervical mucus; [25]
  Cellularity (cervical mucus score): 0
  Ferning (cervical mucus score): 0
  Spinnbarkiet (cervical mucus score): 0 (less than 1 cm)
  Viscosity (cervical mucus score): 0
  TOTAL cervical mucus score: 0.2
Human cervical mucus; [26]
  Cellularity (cervical mucus score): 1 ± .53
  Ferning (cervical mucus score): 1 ± .53
  Spinnbarkiet (cervical mucus score): 1 ± .26
  Viscosity (cervical mucus score): 1 ± .69
  TOTAL cervical mucus score: 4.3
Human cervical mucus; [27]
  Cellularity (cervical mucus score): 1 ± .51
  Ferning (cervical mucus score): 1 ± .53
  Spinnbarkeit (cervical mucus score): 1 ± .26
  Viscosity (cervical mucus score): 2 ± .69
  TOTAL cervical mucus score: 5.2
Human cervical mucus; [28]
  Cellularity (cervical mucus score): 1 ± .51
  Ferning (cervical mucus score): 0
  Spinnbarkeit (cervical mucus score): 1 ± .26
  Viscosity (cervical mucus score): 1 ± .69
  TOTAL cervical mucus score: 3.15

## albumin
Human sperm; 10% albumin
  sperm motility: decreased sperm motility almost close to that of 12.5 mM concentration of ferrous gluconate
Human sperm; 20% albumin
  sperm completely immobilized: ~97%
Human sperm; 40% albumin
  sperm completely immobilized: ~97%
Human sperm; lower concentrations of albumin and dextran
  spermiostatic effects: not significant
